From US20250090437A1, “COSMETIC COMPOUNDING AGENT, COSMETIC AND PRODUCTION METHOD THEREOF” (MIYOSHI OIL & FAT CO., LTD., priority 2019, published 2025)

What was measured:
[1] = Water confinement property test (barrier property); type: physicochemical; settings: 80 wt % aqueous solution, 0.01 mL/cm^2 on filter paper, 40° C. and 25% RH, 24 hours
Protocol: Next, 20.0 g of an ion-exchange water was put into a 40 mL pierce vial bottle (by AS ONE Corporation.), followed by removing an inner lid (rubber plug) of the pierce vial bottle, placing on the pierce vial bottle the filter paper to which each sample had been applied, and then plugging the bottle with an outer lid.
Further, Wm1, Wm2, Sm1 and Sm2 in the formula below respectively represent the following numerical values.
Wm1: Weight of ion-exchange water in vial before storage (using filter paper to which only ion-exchange water had been applied)
Wm2: Weight of ion-exchange water in vial after 24 hours (using filter paper to which only ion-exchange water had been applied)
Sm1: Weight of ion-exchange water in vial before storage (using filter paper to which sample had been applied)
Sm2: Weight of ion-exchange water in vial after 24 hours (using filter paper to which sample had been applied)

[2] = Solubility of active ingredient (glutamic acid) in aqueous solution of the compound; settings: in 1.8 g compound + 8.2 g ion-exchange water
[3] = Sensory evaluation on healthy hair after using conditioner containing organic ammonium salt; parameters: species or system human; settings: conditioner containing 3.0% by mass of the compound
Protocol: Here, 4.5% by mass of a stearyl alcohol (KALCOL 8688 by Kao Corporation), 2.0% by mass of a behenyl alcohol (KALCOL 220-80 by Kao Corporation) and 0.5% by mass of a phenoxyethanol (Hisolve EPH by TOHO Chemical Industry Co., Ltd.) were mixed together and heated to 75° C. to obtain a liquid A. Further, 3.0% by mass of a behentrimonium chloride (CATINAL DC-80 by TOHO Chemical Industry Co., Ltd.), 5.0% by mass of dipropylene glycol and 3.0% by mass of each of the compounds B11, B23, B26, B27 and B28 (content in terms of anhydride in the cases of the compounds B11 and B23) were added together, followed by adding a purified water thereto, and then melting them at 80° C., thus obtaining a liquid B. The liquid B was then gradually added to the liquid A, and stirring was performed at 75° C. for 20 min. Next, the mixture was cooled to a temperature of 40° C. or lower, and a purified water of an evaporated amount was then added thereto so that the whole hair treatment composition would be 100% by mass, followed by uniformly mixing them so as to obtain a hair treatment composition(s).
About 5 g of the healthy hair was dipped into and kept immersed in 150 g of a seven-time dilute aqueous solution of each of the abovementioned hair treatment compositions (conditioners) at 40° C. for 30 min. […] After air drying, a combing capability, cohesiveness and non-stickiness of the hair were evaluated.

[4] = Affinity to hair (contact angle); settings: 50 wt % aqueous solution; condition B (hair iron, 160° C.)
[5] = Sensory evaluation on damaged hair after using shampoo agent containing organic ammonium salt; parameters: species or system human; settings: shampoo agent containing the compound; treated 10 times
Protocol: Next, the mixture was cooled to a temperature of 30° C. or lower, and a purified water of an evaporated amount was then added thereto so that the whole hair treatment composition would be 100% by mass, followed by uniformly mixing them so as to obtain a hair treatment composition(s). The pH level of the hair treatment composition was adjusted to pH 6.0 by adding a citric acid or sodium hydroxide.
The damaged hair was repeatedly treated 10 times in a similar manner as 3-1; evaluated were a cohesiveness of the hair, surface smoothness of the hair and waviness of the hair after performing air drying.

[6] = Permeability to skin (horny layer tape stripping method); type: in vivo; settings: extraction liquid, an hour after application to the arm, HPLC
Protocol: Skin permeability was evaluated by a horny layer tape stripping method. […] A sample was applied to the arm and then left thereon for an hour before performing tape stripping on the horn by eight layers. An adhered substance on this tape was then extracted with an ion-exchange water over the course of 10 min, followed by filtrating an extraction liquid thus obtained with a 0.2 μm filter, and then quantifying, via HPLC, the amount of each of the compounds C20, C64 and C97 in each extraction liquid filtrated.

keratin [7] = assay: Stabilization effect of hair treatment agent on keratin (IR, 130° C., seven days); settings: treated keratin after 130° C. for seven days
Protocol: Here, 0.3 g of the keratin that had been treated in 4-1 was placed into a thermostatic device of 130° C. and left to stand still therein for seven days. After seven days, an IR spectrum of the keratin obtained was measured; by measuring an absorption derived from the α-helix secondary structure of amide, a stabilization effect of the hair treatment agent on the structure of keratin was evaluated.
Next, IR measurement was carried out after performing the heating test at 130° C. to obtain peaks derived from each amide and an intensity ratio(s) thereof to a reference peak (reference peak (derived from C—N) 1086 cm^−1, peak 1654 cm^−1 derived from the α-helix secondary structure of amide). The intensity ratio (X) was evaluated as “intensity of reference peak:intensity of peak derived from amide=1:X,” by reading the absorption intensity of the reference peak and the intensity of the peak derived from amide.

keratin [8] = assay: Keratin adherability; settings: 1 g keratin in 2 g of 50 wt % aqueous solution, 25° C., 24 hours
Protocol: Here, 1 g of a powdery keratin (by Tokyo Chemical Industry Co., Ltd.) (pre-test keratin) was added to 2 g of a 50 wt % aqueous solution of each of the compounds B11, B23, B26 and B27, followed by performing stirring at 25° C. for 24 hours. After stirring, filtration was performed, and a powdery keratin obtained was then dried so as to obtain a keratin that had been treated (post-test keratin).
A rate of compound adhesion to keratin was calculated with the following formula.

Water evaporation inhibition rate [1]: 16.2%
Amount of dissolution Glutamic acid [2]: <0.08 g
Compound concentration ([6]; Tape stripping layer 1): 0.030 ml/L
Compound concentration ([6]; Tape stripping layer 2): 0.014 ml/L
Compound concentration ([6]; Tape stripping layer 3): 0.009 ml/L
Compound concentration ([6]; Tape stripping layer 4): 0.009 ml/L
Compound concentration ([6]; Tape stripping layer 5): 0.008 ml/L
Compound concentration ([6]; Tape stripping layer 6): 0.006 ml/L
Compound concentration ([6]; Tape stripping layer 7): 0.006 ml/L
Compound concentration ([6]; Tape stripping layer 8): 0.006 ml/L
Structure (SMILES): OCC(O)CO [Compound A52, glycerin, reference compound]
Combing capability, cohesiveness and non-stickiness of healthy hair after conditioner [3]: slightly inferior
Contact angle of water droplet on treated hair [4]: not indifferent from that of the untreated product
Sensory evaluation of damaged hair after shampoo agent (cohesiveness, surface smoothness, waviness) [5]: inferior surface smoothness
α-helix secondary structure of keratin after heating (keratin [7]): maintained
Rate of compound adhesion to keratin (keratin [8]): 11.0%
